Tests used:
RD cells = experiment: MTT cell viability assay, RD; type: cell-based, human; conditions: RD (eRMS), 48 h
Experimental: (§1) RH30 human aRMS cells (kindly provided by Associate Professor Judith Davie, Southern Illinois University), AX-OH-1 human aRMS and FL-OH-1 human eRMS cells (kindly provided by Professor Stefan Bath, University of Cape Town) were cultured in Roswell Park Memorial Institute Medium (RPMI)-1640 (Sigma Aldrich, Missouri, USA). […] Cell morphology was monitored using an Olympus CKX41 inverted microscope (MSAC Ltd, UK) and imaged with an EVOS™ XL AMEX1000 Core Imaging System (Thermo Fisher Scientific, Massachusetts, USA).
(§2) Cells were seeded in 96-well plates and treated the next day with a range of AJ-5 concentrations (0.1–1.0 μM) or vehicle ([…]) for 48 h. Cell viability was measured using the 3-(4,5-dimethylthiazol-2-yl)-2,5-diphenyl-trazolium bromide (MTT) assay (11465007001; Sigma Aldrich) according to the manufacturer’s instructions. Mean cell viability was calculated as a percentage of the mean vehicle control. At least three independent experiments in quadruplicate were performed from which the half maximal inhibitory concentration (IC50) was determined using GraphPad Prism version 6.0 (GraphPad Software, California, USA). The selectivity index (SI) was determined by dividing the IC50 of a normal cell line by the IC50 of a cancer cell line.

[1] = test system: caspase-3/7, caspase-8, caspase-9, PARP in RH30 and RD cells; experiment: Caspase-Glo assays and western blots of apoptosis markers; type: cell-based, human
Experimental: Cells were lysed at 4 °C in whole-cell lysis buffer (0.125 M Tris-HCl pH 6.8, 4% SDS, 0.2% glycerol, 0.1% β-mercaptoethanol and a pinch of bromophenol blue) and boiled for 10 min. Proteins were resolved by SDS-PAGE (6–15% gels) and transferred to Hybond ECL membranes (Amersham, UK). The membranes were incubated with primary antibodies: rabbit polyclonal antibodies to phospho-histone H2A.X (Ser139) (#2577), phospho-chk2 (Thr68) (#221), phospho-p38 MAPK (Thr180/Tyr182) (#9211), cleaved caspase-3 (Asp175) (#9661), PARP (#9542), caspase-9 (#9502), LC3B (#2775), p38 MAPK (#9212), rabbit monoclonal antibody to cleaved caspase-7 (Asp198) (D6H1) (#8438), mouse monoclonal antibodies to phospho-ATM (Ser1981) (D6H9) (#5883), Cyclin B1 (V152) (#4135), Caspase-8 (1C12) (#9746), SQSTM1/p62 (D5L7G) (#88588) from Cell Signaling Technology (Massachusetts, USA); mouse monoclonal antibody to p53 (DO-1) (sc-126), rabbit polyclonal antibodies to p21 (C-19) (sc-397), cyclin A (H-432) (sc-751), cyclin B1 (H-433)(sc-752), PARP-1 (H-250) (sc-7150) from Santa Cruz Biotechnology (Texas, USA); rabbit polyclonal antibody to p38 MAP kinase (M0800) from Sigma Aldrich. After primary antibody incubation, membranes were incubated with goat anti-rabbit or goat anti-mouse HRP-conjugated secondary antibodies (Bio-Rad Laboratories, California, USA). Antibody reactive proteins were visualized by enhanced chemiluminescence using SuperSignal West Pico Chemiluminescent Substrate Kit (Thermo Fisher Scientific) or WesternBright ECL HRP Substrate Kit (Advansta, California, USA). Densitometry readings were obtained using ImageJ v1.50i[58] and protein expression levels were represented as a ratio of protein of interest/p38 loading control normalized to the vehicletreated control sample where appropriate. All blots are representative of at least two independent repeats.
Cells were seeded and treated for 24 h with IC50 AJ-5, vehicle or 0.5 µM (IC50) doxorubicin which was included and as a positive control. […]

RH30 and RD cells = experiment: Annexin V-FITC/PI assay; type: cell-based, human; conditions: IC50
Experimental: Cells were seeded, trypsinized, washed and counted as described for cell cycle analysis. The FITC Annexin V/Dead Cell Apoptosis kit (V13242; Thermo Fisher Scientific) was used according to the manufacturer's instructions. A negative control of unstained cells and positive controls of cells treated with 3% formaldehyde for 30 min on ice and stained with either PI or Annexin V were used to gate the flow cytometer for viable, early apoptotic, late apoptotic, and necrotic cell populations. Samples were subjected to FACS analyses as described for cell cycle analysis. Data were obtained and analysed using CellQuest Pro version 5.2.1. software.

C2C12 cells = experiment: Clonogenic assay, C2C12 myoblasts; type: cell-based, mouse; conditions: 24 h of 0.3 µM
Experimental: Cells were seeded in 6-well plates and treated the following day with IC50, ½ IC50, ¼ IC50 AJ-5 and vehicle. After 24 h, 800–4000 cells were seeded in 35 mm dishes in drug-free medium. Formation of colonies were monitored and after 7–21 days cells were fixed with 3:1 methanol:acetic acid and stained with 0.5% crystal violet (Sigma Aldrich) in 100% methanol. Colonies were imaged and percentage colony area was determined using ImageJ v1.50i[58] and the plugin ColonyArea[59]. Colony area was determined for each drug concentration and expressed as a percentage of vehicletreated control.

AX-OH-1 cells = experiment: MTT cell viability assay, AX-OH-1; type: cell-based, human; conditions: AX-OH-1 (aRMS), 48 h
Experimental: as §1, §2

MG-63 cells = experiment: MTT cell viability assay, MG-63 osteosarcoma; type: cell-based, human; conditions: 48 h

With `CC(C)c1cccc(C(C)C)c1[N+]1=Cc2cccc[c]2[Pd-2]1([Cl])[P+](CC[P+](c1ccccc1)(c1ccccc1)[Pd-2]1([Cl])[c]2ccccc2C=[N+]1c1c(C(C)C)cccc1C(C)C)(c1ccccc1)c1ccccc1` (centres unmarked) [AJ-5] the IC50 (RD cells) was no more than 200 nM, the “Activation of caspases-8 and -9 compared with IC50 doxorubicin” value ([1]; RD cells, 24 h, IC50 AJ-5 vs 0.5 µM doxorubicin) was “more robustly activated” and the “Active (cleaved) caspases-3/7 and cleaved PARP” value ([1]; RH30 and RD) was “increased levels”. The “Cleaved caspase-8 and caspase-9” value ([1]; RH30 and RD, western blotting and Caspase-Glo) was “increased levels and activity”, the “Cell death (Annexin V-FITC/PI)” value (RH30 and RD cells) was “induces apoptotic and necrotic cell death” and the “Ability of C2C12 myoblasts to survive and proliferate (colony area)” value (C2C12 cells) was “not significantly hindered”. The IC50 (AX-OH-1 cells) was no more than 200 nM and the IC50 (MG-63 cells) was less than 300 nM.

From PMC6349869, “The palladacycle complex AJ-5 induces apoptotic cell death while reducing autophagic flux in rhabdomyosarcoma cells” (Cell Death Discovery, 2019)
